Measured values published in paper PMC7501296, “Rapid and direct control of target protein levels with VHL-recruiting dTAG molecules” (Nature Communications, 2020).
Several values for one entry are separate records, joined by “and”; a condition that tells them apart may be missing. Identical values can stand only once.

What was measured:
[1] = test system: EWS502 FKBP12^F36V-GFP cells; assay: Relative growth of EWS502 FKBP12F36V-GFP cells (CellTiter-Glo); assay type: cell-based
Method: Cell viability was assayed in 2D-adherent or ultra-low adherent 3D-spheroids using CellTiter-Glo (Promega)[6],[15]. Luminescence was measured on an Envision 2104 plate reader (PerkinElmer) and Fluostar Omega Reader (BMG Labtech) and data was analyzed using GraphPad PRISM v8. Synergy assessments were performed using CellTiter-Glo (Promega) with the following modifications to the protocol described in the ref. [34]. In brief, EWS502 cells were plated at 1000 cells per well in 50 µL of appropriate media in 384-well white culture plates (Corning) allowed to adhere overnight, and 100 nL of compounds were added using a Janus Workstation pin tool (PerkinElmer) for 72 h. Cell viability was measured by addition of 10 µL of CellTiter-glo (Promega), followed by incubation for 15 minutes at room temperature. Luminescence was measured on an Envision 2104 plate reader (PerkinElmer) and data was analyzed using GraphPad PRISM v8.

MED14 = test system: MED14; design: method as in PMID 32483291; conditions: HCT116 cells; cited from earlier work
FKBP12^F36V-EWS/FLI = assay: Immunoblot of EWS502 FKBP12F36V-EWS/FLI; EWS/FLI-/- cells; assay type: cell-based
Method: To generate 293T^WT FKBP12^F36V-KRAS^G12V and 293T^VHL−/− FKBP12^F36V-KRAS^G12V cells, concentrated lentiviral supernatants[6] were applied to 293T^WT and 293T^VHL−/− cells[33] in the presence of 4 µg mL^−1 polybrene and transduced cell lines were selected with 2 µg mL^−1 puromycin. To generate EWS502 FKBP12^F36V-GFP cells, EWS502 cells were transduced with pLEX_305-dTAG-GFP lentiviral supernatant and selected with 1 µg mL^−1 puromycin. To generate EWS502 FKBP12^F36V-EWS/FLI; EWS/FLI^−/− cells, EWS502 cells were co-transduced with pLEX_305-dTAG-EWS/FLI and lentiCRISPR v2-Blast-sgFLI_Ex9 lentiviral supernatants. Cells were then selected with both 1 µg mL^−1 puromycin (pLEX_305-dTAG-EWS/FLI) and 5 µg mL^−1 blasticidin (lentiCRISPR v2-Blast-sgFLI_Ex9). Knockout of endogenous EWS/FLI and the expression of exogenous FKBP12^F36V-EWS/FLI were confirmed by immunoblot and pooled transduced cell populations were employed for this study. PATU-8902 LACZ-FKBP12^F36V and FKBP12^F36V-KRAS^G12V; KRAS^−/− clones were also employed in this study.
PATU-8902 LACZ-FKBP12^F36V and FKBP12^F36V-KRAS^G12V; KRAS^−/− cells and 293T cells were lysed with RIPA buffer supplemented with cOmplete protease inhibitors (Roche), PhosSTOP phosphatase inhibitors (Roche), and 0.1% benzonase (Novagen). Proteins were separated using NuPAGE Bolt^TM Bis–Tris gels (Thermo Fisher Scientific) and transferred to nitrocellulose membranes, which were blocked with Odyssey Blocking Buffer (LI-COR) and incubated with primary antibodies overnight. Membranes were washed three times with TBS-T, incubated with the appropriate fluorescently labeled infrared secondary antibodies, washed again three times with TBS-T, and assessed using an Odyssey CLx Imager (LI-COR)[6],[15]. EWS502 cells were lysed with Cell Lysis Buffer (Cell Signaling Technology) supplemented with cOmplete protease inhibitors (Roche). Proteins were separated using SDS-PAGE gels and transferred to PVDF membranes, which were blocked with 5% milk in TBS-T and incubated with primary antibodies overnight. Membranes were washed five times with TBS-T, incubated with the appropriate horseradish peroxidase-conjugated secondary antibodies, washed again five times with TBS-T, and imaged. […]

Row | Structure (SMILES) | Relative growth (luminescence values relative to day 0) ([1]; day 0, technical replicates) | Relative growth (luminescence values relative to day 0) ([1]; day 3, technical replicates) | Relative growth (luminescence values relative to day 0) ([1]; day 5, technical replicates) | Relative growth (luminescence values relative to day 0) ([1]; day 7, technical replicates) | Degradation of MED14 (MED14) | FKBP12F36V-EWS/FLI degradation, immunoblot (FKBP12^F36V-EWS/FLI; EWS502 FKBP12F36V-EWS/FLI, EWS/FLI-/- cells) | Time of treatment at which FKBP12F36V-EWS/FLI degradation was evident (FKBP12^F36V-EWS/FLI; EWS502 cells)
1 | CCC(C(=O)N1CCCCC1C(=O)OC(CCc1ccc(OC)c(OC)c1)c1ccccc1OCC(=O)NCCCCCCC(=O)NC(C(=O)N1CC(O)CC1C(=O)NC(C)c1ccc(-c2scnc2C)cc1)C(C)(C)C)c1cc(OC)c(OC)c(OC)c1 (centres unmarked) [dTAG^V-1-NEG] | 0.9807 and 0.9337 and 1.074 and 0.9661 and 0.9369 and 1.05 and 0.936 and 1.123 | 8.012 and 8.414 and 8.126 and 8.231 and 8.041 and 7.9927 and 8.641 and 7.789 | 16.2325 and 15.4561 and 17.0235 and 15.0335 and 14.9405 and 13.797 and 14.8812 and 15.4178 | 19.7372 and 19.9296 and 22.6222 and 21.4195 and 20.5619 and 20.5847 and 22.7467 and 21.3128 | – | – | –
2 | CC[C@H](C(=O)N1CCCC[C@H]1C(=O)O[C@H](CCc1ccc(OC)c(OC)c1)c1ccccc1OCC(=O)NCCCCCCC(=O)N[C@H](C(=O)N1C[C@H](O)C[C@H]1C(=O)N[C@@H](C)c1ccc(-c2scnc2C)cc1)C(C)(C)C)c1cc(OC)c(OC)c(OC)c1 [dTAG^V-1] | 1.01 and 0.9846 and 0.9416 and 1.081 and 0.9895 and 0.8796 and 1.056 and 1.058 | 7.436 and 7.522 and 7.571 and 8.146 and 7.791 and 7.539 and 7.5229 and 8.295 | 12.9905 and 13.8226 (2×) and 13.4717 and 14.0465 and 14.5379 and 14.3196 and 15.9343 | 19.3543 and 18.2942 and 18.0829 and 20.64 and 18.2038 and 18.0695 and 17.6427 and 20.3483 | effective degradation | only susceptible to degradation upon treatment with dTAG^V-1 | ≤ 1 h
